Like-named read-outs stand apart in the source and are kept apart here.
Tested on: HCV replicon
Experiment: HCV replicon replication assay (NPT ELISA)
Assay type: cell-based
Conditions: Hepatitis C virus
Description: Compounds claimed herein are tested for the ability to inhibit viral replication of the Hepatitis C replicon in cultured cells in which the HCV replicon construct has been incorporated. The HCV replicon system was described by Bartenschlager, et. al (Science, 285, pp. 110-113 (1999)). The replicon system is predictive of in vivo anti-HCV activity; compounds that are active in humans uniformly evidence activity in the replicon assay.
In this assay HCV replicon containing cells are treated with different concentrations of the test compound to ascertain the ability of the test compound to suppress replication of the HCV replicon. As a positive control, HCV replicon-containing cells are treated with different concentrations of interferon alpha, a known inhibitor of HCV replication. The replicon assay system includes Neomycin Phosphotransferase (NPT) as a component of the replicon itself in order to detect the transcription of replicon gene products in the host cell. Cells in which the HCV replicon is actively replicating have high levels of NPT; the level of NPT is proportional to HCV replication. […] The NPT level of each sample is measured using a captured ELISA.
A protocol for testing compounds for the ability to inhibit viral replication of the Hepatitis C replicon cultured cells in which the replicon construct has been incorporated, follows.
The HCV replicon contains, 5′-3′, the HCV-IRES, the neomycin phosphotransferase (neo) gene, the IRES of encephalomyocarditis virus, which directs translation of HCV sequences NS3 to NS5B, and the 3′-NTR. The sequence of the HCV replicon has been deposited in GenBank (Accession no. AJ242652).
The replicon is transfected into Huh-7 cells using standard methods such as electroporation.
The equipment and materials include, but are not limited to, Huh-7 HCV replicon-containing cells, maintenance media (DMEM (Dulbecco's modified Eagle media) supplemented with 10% FBS, L-glutamine, non-essential amino acids, penicillin (100 units/ml), streptomycin (100 micrograms/ml), and 500 micrograms/ml of Geneticin (G418), screening media (DMEM supplemented with 10% FBS, L-glutamine, non-essential amino acids, penicillin (100 units/ml) and streptomycin (100 micrograms/ml)), 96 well tissue culture plates (flat bottom), 96 well plates (U bottom for drug dilution), Interferon alpha for positive control, fixation reagent (such as methanol: acetone), primary antibody (rabbit anti-NPTII), secondary antibody: Eu-N1 1, and enhancement solution.
HCV replicon-containing cells support high levels of viral RNA replicon replication when their density is suitable. Over-confluency causes decreased viral RNA replication. Therefore, cells must be kept growing in log phase in the presence of 500 micrograms/ml of G418. Generally, cells should be passed twice a week at 1: 4-6 dilution. Cell maintenance is conducted as follows:
HCV replicon-containing cells are examined under a microscope to ensure that cells growing well. Cells are rinsed once with PBS and 2 ml trypsin is added. The cell/trypsin mixture is incubated at 37° C. in a CO2 incubator for 3-5 minutes. After incubation 10 ml of complete media is added to stop the trypsinization reaction. Cells are blown gently, put into a 15 ml tube, and spun at 1200 rpm for 4 minutes. The trypsin/medium solution is removed. Medium (5 ml) is added and the cells are mixed carefully. The cells are counted.
The cells are then seeded onto 96-well plates at a density of 6000-7500 cells/100 microliters/well (6−7.5×10^5 cells/10 ml/plate). The plates are then incubated at 37° C. in a 5% CO2 incubator.
Cells are examined under a microscope approximated 24 hours after seeding and prior to adding drugs. If counting and dilution were performed correctly, cells are 60-70% confluent and nearly all cells should attach and spread evenly in the well.
HCV replicon-containing cells are rinsed with once PBS once; 2 mls of trypsin are then added. Cells are incubated at 37° C. in a 5% CO2 incubator for 3-5 minutes. […]

[1] = 72 h, Huh-7 HCV replicon-containing cells, three days, numeric cells, read-out: EC50
[2] = 72 h, Huh-7 HCV replicon-containing cells, three days, class symbols, read-out: EC50

Compound	EC50 [1]	EC50 (Huh-7)	EC50 [2]
CNC(=O)C[C@H](C(=O)N1C2CCC(C2)[C@H]1c1nc(-c2ccc(-c3ccc(-c4cnc([C@@H]5C6CCC(C6)N5C(=O)[C@@H](CC(=O)NC)C(C)C)[nH]4)cc3)cc2)c[nH]1)C(C)C (stereo partly drawn) [Compound 38, (3S,3′S)-3,3′-(3S,3′S)-3,3′-(4,4′-(biphenyl-4,4′-diyl)bis(1H-imidazole-4,2-diyl))bis(2-azabicyclo[2.2.1]heptane-3,2-diyl)bis(oxomethylene)bis(N,4-dimethylpentanamide)]	> 1 nM	≤ 10000 nM	–
COC(=O)NC(C(=O)N1C2CCC(CC2)C1c1ncc(-c2ccc(-c3ccc(-c4c[nH]c([C@@H]5C6CCC(CC6)N5C(=O)C(NC(=O)OC)C(C)C)n4)cc3)cc2)[nH]1)C(C)C (some centres unmarked) [Compound 51]	–	–	< 5 nM
COC(=O)NC(C(=O)C1C(c2nc(-c3ccc(-c4ccc(-c5cnc([C@@H]6CCCN6C(=O)[C@@H](NC(=O)OC)C(C)C)[nH]5)cc4)cc3)c[nH]2)C2CC1[C@H](F)[C@@H]2F)C(C)C (some centres unmarked) [Compound 60]	–	–	< 5 nM
COC(=O)NC(C(=O)N1C2CCC(C2)C1c1nc2ccc(-c3ccc4[nH]c(C5C6CCC(C6)N5C(=O)[C@@H](NC(=O)OC)C(C)C)nc4c3)cc2[nH]1)C(C)C (some centres unmarked) [Compound 64]	619 nM	–	–
COC(=O)N[C@H](C(=O)N1CCC[C@H]1c1ncc(-c2ccc(-c3ccc(-c4c[nH]c([C@@H]5C6CC([C@@H](O)[C@H]6O)N5C(=O)[C@@H](NC(=O)OC)C(C)C)n4)cc3)cc2)[nH]1)C(C)C (some centres unmarked) [Compound 46]	–	–	< 50 nM
COC(=O)N[C@H](C(=O)N1C2CCC(C2)[C@H]1c1nc(-c2ccc(-c3c[nH]c([C@@H]4C5CCC(C5)N4C(=O)[C@@H](NC(=O)OC)C(C)C)n3)cc2)c[nH]1)C(C)C [Compound 74]	–	–	< 50 nM
CNC(=O)C[C@H](C(=O)N1CCC[C@H]1c1ncc(-c2ccc(-c3cnc([C@@H]4CCCN4C(=O)[C@@H](CC(=O)NC)C(C)(C)C)[nH]3)cc2)[nH]1)C(C)(C)C [Compound 23, (3S,3′S)-3,3′-(2S,2′S)-2,2′-(5,5′-(1,4-phenylene)bis(1H-imidazole-5,2-diyl))bis(pyrrolidine-2,1-diyl)bis(oxomethylene)bis(N,4,4-trimethylpentanamide)]	–	–	< 50 nM
CCS(=O)(=O)N[C@H](C(=O)N1C2CCC(C2)[C@H]1c1nc(-c2ccc(-c3ccc(-c4c[nH]c([C@@H]5C6CCC(C6)N5C(=O)[C@@H](NS(=O)(=O)CC)C(C)C)n4)cc3)cc2)c[nH]1)C(C)C [Compound 33, N,N′-(2S,2′S)-1,1′-((3S,3′S)-3,3′-(4,4′-(biphenyl-4,4′-diyl)bis(1H-imidazole-4,2-diyl))bis(2-azabicyclo[2.2.1]heptane-3,2-diyl))bis(3-methyl-1-oxobutane-2,1-diyl)diethanesulfonamide]	–	≤ 10000 nM	< 5 nM
CC(=O)N[C@H](C(=O)N1CC=CC1c1nc(-c2ccc(-c3ccc(-c4c[nH]c(C5C=CCN5C(=O)[C@@H](NC(C)=O)C(C)C)n4)cc3)cc2)c[nH]1)C(C)C (stereo partly drawn) [Compound 28, N,N′-(2S,2′S)-1,1′-((2R,2′R)-2,2′-(4,4′-(biphenyl-4,4′-diyl)bis(1H-imidazole-4,2-diyl))bis(1H-pyrrole-2,1(2H,5H)-diyl))bis(3-methyl-1-oxobutane-2,1-diyl)diacetamide]	–	–	< 50 nM
COC(=O)N[C@H](C(=O)N1C2CCC(C2)C1c1ncc(-c2ccc(-c3ccc(-c4cnc([C@@H]5CCCN5C(=O)[C@@H](NC(=O)OC)C(C)C)[nH]4)cc3)cc2)[nH]1)C(C)C (some centres unmarked) [Compound 57]	–	–	< 5 nM
COC(=O)N[C@H](C(=O)N1CCCCCC1c1nc(-c2ccc(-c3ccc(-c4c[nH]c(C5CCCCCN5C(=O)[C@@H](NC(=O)OC)C(C)C)n4)cc3)cc2)c[nH]1)C(C)C (stereo partly drawn) [Compound 61, dimethyl (2S,2′S)-1,1′-(2,2′-(4,4′-(biphenyl-4,4′-diyl)bis(1H-imidazole-4,2-diyl))bis(azepane-2,1-diyl))bis(3-methyl-1-oxobutane-2,1-diyl)dicarbamate]	–	–	< 50 nM
COC(=O)N[C@H](C(=O)N1CCCCC1c1nc(-c2ccc(-c3ccc(-c4c[nH]c(C5CCCCN5C(=O)[C@@H](NC(=O)OC)C(C)C)n4)cc3)cc2)c[nH]1)C(C)C (some centres unmarked) [Compound 50]	–	–	< 5 nM
